According to patent publication US20020077491A1, “Methods for forming combinatorial libraries combining amide bond formation with epoxide opening” (priority 2000, published 2002):
Where “and” joins values, the source holds several entries; their conditions need not be identical. Identical values can stand only once.

Assays:
[1] = molecular target: T1, E. coli dihydrofolate reductase (DHFRec) (Escherichia coli, UniProt P0ABQ4); test: ALIS affinity selection-mass spectrometry with E. coli DHFR; type: binding
T1 construct: made in house
Text: (§1) Utilizing the ALIS techniques described above, the affinity of ligands for DHFRec was compared to the affinity of the same ligands for the bovine (B. taurus) DHFR enzyme.

[2] = molecular target: T2, bovine (B. taurus) DHFR enzyme (Bos taurus, UniProt P00376); test: ALIS affinity selection with bovine DHFR; type: binding; conditions: FIG. 9
T2 sequence (P00376 1-187): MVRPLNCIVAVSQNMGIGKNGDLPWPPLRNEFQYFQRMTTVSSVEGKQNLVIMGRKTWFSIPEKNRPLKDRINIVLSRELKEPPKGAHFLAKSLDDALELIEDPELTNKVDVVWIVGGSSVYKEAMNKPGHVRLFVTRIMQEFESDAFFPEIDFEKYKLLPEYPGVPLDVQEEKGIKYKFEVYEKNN
Text: as §1

E. coli BL21(DE3) = test: Determination of antibacterial activity (inhibition of bacterial growth, absorbance at 600 nm); type: cell-based; conditions: Escherichia coli, 24 hours at 37° C.
Method: Protocols for the measurement of IC50 for the evaluation of antibacterial activity followed standard methods [Antibiotics in Laboratory Medicine, V. Lorian, Ed. Fourth edition, 1996. Williams and Wilkins; Baltimore, Md.]. Briefly, purified (S)-29, antibiotic control, or vehicle (DMSO) was subjected to serial dilution into Luria-Bertani growth medium in a manner that placed 0.1 mL aliquots of medium-plus-vehicle or medium-plus-antibiotic into each well of a sterile polystyrene 96-well plate. To aid compound dissolution, medium-analyte mixtures were warmed to 37° C. for eight hours with agitation. Bacterial cells, [E. coli: hsdS gal (λcIts857 ind 1 Sam7 nin5 lacUV5-T7 gene 1); BL21(DE3)] were grown in to mid-log phase at 37° C. The culture was then diluted 1:10^5 into prewarmed growth medium. Aliquots of diluted bacterial culture (0.1 mL) were then combined with the pre-aliquotted medium-analyte mixtures to yield 0.2 mL inoculated cultures containing no more than 2.5% DMSO. The plated inoculate series were then grown for twenty-four hours at 37° C. with orbital shaking. Bacterial cell growth was quantitated by measuring absorbance at 600 nm. IC50 for the inhibition of bacterial growth was defined as the concentration of drug at which cell growth was half maximal at twenty-four hours.

SMILES	affinity for DHFRec (ALIS) ([1]; E. coli enzyme, FIG. 9)	specificity for E. coli DHFR over bovine DHFR ([1]; pathogen vs. host DHFR, FIG. 9)	affinity for bovine (B. taurus) DHFR (ALIS) [2]	IC50 (E. coli BL21(DE3))	ligand identified by affinity selection LC-MS-MS ([1]; sublibrary from Core 6 with building blocks 15 and 21)
COc1ccc([C@@H](C)NC[C@H](O)COc2cc(C(=O)N3CCN(c4cccc(Cl)c4)CC3)on2)cc1 [(S)-29]	selectively binds to the E. coli enzyme	exhibits specificity for E. coli DHFR over bovine (B. taurus) DHFR	no detectable affinity	56 µM and 29 µg/mL	
COc1ccc([C@@H](C)NCC(O)COc2cc(C(=O)N3CCN(c4cccc(Cl)c4)CC3)on2)cc1 (some centres unmarked) [Core 29]					matched that assigned to regioisomer 29
